Test results published in publication PMC6218957, “VS-4718 Antagonizes Multidrug Resistance in ABCB1- and ABCG2-Overexpressing Cancer Cells by Inhibiting the Efflux Function of ABC Transporters” (Frontiers in Pharmacology, 2018).

Experiments:
[1] = biological target: T1, ABCG2 (Homo sapiens, UniProt Q9UNQ0)
T1 sequence (Q9UNQ0 1-655): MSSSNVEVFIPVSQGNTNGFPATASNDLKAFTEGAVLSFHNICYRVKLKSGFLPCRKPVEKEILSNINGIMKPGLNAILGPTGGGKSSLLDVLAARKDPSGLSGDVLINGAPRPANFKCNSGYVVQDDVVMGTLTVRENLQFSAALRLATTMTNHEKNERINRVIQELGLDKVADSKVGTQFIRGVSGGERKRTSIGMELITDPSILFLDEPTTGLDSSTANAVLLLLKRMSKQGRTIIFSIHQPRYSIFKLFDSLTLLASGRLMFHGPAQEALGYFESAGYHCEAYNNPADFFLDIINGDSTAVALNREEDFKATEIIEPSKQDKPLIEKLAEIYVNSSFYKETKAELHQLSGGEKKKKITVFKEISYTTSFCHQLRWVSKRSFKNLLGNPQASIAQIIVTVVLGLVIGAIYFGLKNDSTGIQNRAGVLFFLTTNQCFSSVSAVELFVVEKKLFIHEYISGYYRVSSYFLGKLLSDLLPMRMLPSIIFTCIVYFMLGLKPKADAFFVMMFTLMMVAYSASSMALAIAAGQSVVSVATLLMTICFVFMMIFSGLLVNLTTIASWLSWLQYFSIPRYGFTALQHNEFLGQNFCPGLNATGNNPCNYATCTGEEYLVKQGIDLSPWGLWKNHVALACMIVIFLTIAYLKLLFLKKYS

[2] = biological target: T1, ABCG2; assay: biochemical; set-up: cell membranes that overexpressed ABCG2
[3] = biological target: T2, ABCB1 (Homo sapiens, UniProt P08183); assay: ATPase stimulation in ABCB1-overexpressing membranes; also [3H]-paclitaxel accumulation/efflux inhibition in KB-C2 cells; format: biochemical; set-up: cell membranes that overexpressed ABCB1
[4] = biological target: T2, ABCB1

T2 sequence (P08183 whole entry): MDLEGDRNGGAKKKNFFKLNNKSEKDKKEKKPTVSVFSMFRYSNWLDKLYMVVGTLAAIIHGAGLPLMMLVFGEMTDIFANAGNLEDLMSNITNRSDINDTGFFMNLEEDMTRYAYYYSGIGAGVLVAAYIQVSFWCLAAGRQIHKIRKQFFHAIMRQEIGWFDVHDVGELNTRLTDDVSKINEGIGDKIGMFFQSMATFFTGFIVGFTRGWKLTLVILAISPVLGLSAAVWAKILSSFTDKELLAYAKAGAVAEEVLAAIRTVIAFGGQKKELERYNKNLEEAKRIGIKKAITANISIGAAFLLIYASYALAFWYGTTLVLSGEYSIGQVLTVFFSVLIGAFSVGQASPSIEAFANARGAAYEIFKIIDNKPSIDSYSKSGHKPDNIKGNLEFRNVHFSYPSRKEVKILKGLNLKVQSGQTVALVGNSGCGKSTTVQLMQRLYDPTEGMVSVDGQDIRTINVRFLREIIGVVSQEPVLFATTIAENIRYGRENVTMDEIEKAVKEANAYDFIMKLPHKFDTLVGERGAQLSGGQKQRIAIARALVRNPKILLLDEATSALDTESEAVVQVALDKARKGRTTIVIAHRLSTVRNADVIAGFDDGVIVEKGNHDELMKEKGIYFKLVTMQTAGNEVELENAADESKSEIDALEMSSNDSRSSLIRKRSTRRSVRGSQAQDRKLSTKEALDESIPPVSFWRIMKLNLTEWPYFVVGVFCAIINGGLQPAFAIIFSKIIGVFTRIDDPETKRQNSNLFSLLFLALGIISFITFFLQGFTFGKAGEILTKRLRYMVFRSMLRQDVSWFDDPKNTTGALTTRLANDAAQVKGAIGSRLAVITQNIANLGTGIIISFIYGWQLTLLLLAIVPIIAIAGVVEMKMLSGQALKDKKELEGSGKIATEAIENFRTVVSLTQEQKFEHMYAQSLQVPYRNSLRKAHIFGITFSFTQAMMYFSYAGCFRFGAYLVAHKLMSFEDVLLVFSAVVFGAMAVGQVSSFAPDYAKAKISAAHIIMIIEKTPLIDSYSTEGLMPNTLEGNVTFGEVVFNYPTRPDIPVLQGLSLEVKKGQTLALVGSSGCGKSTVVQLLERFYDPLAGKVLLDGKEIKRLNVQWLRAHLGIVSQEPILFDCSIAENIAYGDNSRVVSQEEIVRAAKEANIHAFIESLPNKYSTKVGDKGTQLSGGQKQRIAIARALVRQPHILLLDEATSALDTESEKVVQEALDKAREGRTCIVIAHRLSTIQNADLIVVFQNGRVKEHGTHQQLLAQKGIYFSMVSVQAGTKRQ

## O=C1c2c(O)ccc(O)c2C(=O)c2c(NCCNCCO)ccc(NCCNCCO)c21 [Mitoxantrone]
[1]
  radiolabelled efflux/accumulation in ABCG2-overexpressing NCI-H460/MX20 vs paren: [^3H]-mitoxantrone efflux in ABCG2-overexpressing NCI-H460/MX20 cells

## CNC(=O)c1ccccc1Nc1cc(Nc2ccc(N3CCOCC3)cc2OC)ncc1C(F)(F)F [VS-4718]
[2]
  EC50: 9.6 µM
[3]
  EC50: 1.72 µM

## CC(=O)O[C@H]1C(=O)[C@@]2(C)[C@H]([C@H](OC(=O)c3ccccc3)[C@]3(O)C[C@H](OC(=O)[C@H](O)[C@@H](NC(=O)c4ccccc4)c4ccccc4)C(C)=C1C3(C)C)[C@]1(OC(C)=O)CO[C@@H]1C[C@@H]2O [Paclitaxel]
[4]
  radiolabelled efflux/accumulation in ABCB1-overexpressing KB-C2 vs parental KB-3: VS-4718 significantly reduced the efflux of [^3H]-paclitaxel in ABCB1-overexpressing KB-C2 cells
